# Experimental data from patent publication US8192962B2, “Processes for detecting toxic substances” (Daikin Industries, Ltd., priority 2001, dated 2012).
# Tested on: Transport facilitation protein genes
# Assay: DNA chip mRNA expression in yeast, transport facilitation protein genes (Table 5)
# Type: cell-based, Saccharomyces cerevisiae S288C
# Procedure, shortened: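 Whole-genome yeast DNA chip hybridization (65° C., >12 h) of Cy-labeled cDNA from S288C cells exposed 2 h at 25° C. to a sub-lethal toxicant dose in YPD; value is intensity relative to chemical-free control.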
compound,measurement,setting,value
"C=CC=O [(14), acrolein]",The level of expressed mRNA in the presence of chemical substance/The level of expressed mRNA in the absence of chemical substance,yeast gene YBL030C,0.8
same,The level of expressed mRNA in the presence of chemical substance/The level of expressed mRNA in the absence of chemical substance,yeast gene YBL099W,0.6
same,The level of expressed mRNA in the presence of chemical substance/The level of expressed mRNA in the absence of chemical substance,yeast gene YBR052C,1.5
same,The level of expressed mRNA in the presence of chemical substance/The level of expressed mRNA in the absence of chemical substance,yeast gene YBR068C,1.8
same,The level of expressed mRNA in the presence of chemical substance/The level of expressed mRNA in the absence of chemical substance,yeast gene YBR127C,0.6
same,The level of expressed mRNA in the presence of chemical substance/The level of expressed mRNA in the absence of chemical substance,yeast gene YBR132C,1.1
same,The level of expressed mRNA in the presence of chemical substance/The level of expressed mRNA in the absence of chemical substance,yeast gene YBR207W,0.9
same,The level of expressed mRNA in the presence of chemical substance/The level of expressed mRNA in the absence of chemical substance,yeast gene YBR293W,1.4
same,The level of expressed mRNA in the presence of chemical substance/The level of expressed mRNA in the absence of chemical substance,yeast gene YBR294W,1.3
same,The level of expressed mRNA in the presence of chemical substance/The level of expressed mRNA in the absence of chemical substance,yeast gene YBR295W,1.1
same,The level of expressed mRNA in the presence of chemical substance/The level of expressed mRNA in the absence of chemical substance,yeast gene YBR298C,0.9
same,The level of expressed mRNA in the presence of chemical substance/The level of expressed mRNA in the absence of chemical substance,yeast gene YCL025C,0.7
same,The level of expressed mRNA in the presence of chemical substance/The level of expressed mRNA in the absence of chemical substance,yeast gene YCL038C,1.3
same,The level of expressed mRNA in the presence of chemical substance/The level of expressed mRNA in the absence of chemical substance,yeast gene YCR024C-A,0.8
same,The level of expressed mRNA in the presence of chemical substance/The level of expressed mRNA in the absence of chemical substance,yeast gene YCR037C,0.8
same,The level of expressed mRNA in the presence of chemical substance/The level of expressed mRNA in the absence of chemical substance,yeast gene YCR098C,1.1
same,The level of expressed mRNA in the presence of chemical substance/The level of expressed mRNA in the absence of chemical substance,yeast gene YDL128W,0.7
same,The level of expressed mRNA in the presence of chemical substance/The level of expressed mRNA in the absence of chemical substance,yeast gene YDL198C,1.7
same,The level of expressed mRNA in the presence of chemical substance/The level of expressed mRNA in the absence of chemical substance,yeast gene YDL210W,1.1
same,The level of expressed mRNA in the presence of chemical substance/The level of expressed mRNA in the absence of chemical substance,yeast gene YDL245C,1.2
same,The level of expressed mRNA in the presence of chemical substance/The level of expressed mRNA in the absence of chemical substance,yeast gene YDR038C,0.8
same,The level of expressed mRNA in the presence of chemical substance/The level of expressed mRNA in the absence of chemical substance,yeast gene YDR039C,0.9
same,The level of expressed mRNA in the presence of chemical substance/The level of expressed mRNA in the absence of chemical substance,yeast gene YDR086C,1.5
same,The level of expressed mRNA in the presence of chemical substance/The level of expressed mRNA in the absence of chemical substance,yeast gene YDR270W,1.0
same,The level of expressed mRNA in the presence of chemical substance/The level of expressed mRNA in the absence of chemical substance,yeast gene YDR298C,1.5
same,The level of expressed mRNA in the presence of chemical substance/The level of expressed mRNA in the absence of chemical substance,yeast gene YDR342C,0.9
same,The level of expressed mRNA in the presence of chemical substance/The level of expressed mRNA in the absence of chemical substance,yeast gene YDR343C,0.8
same,The level of expressed mRNA in the presence of chemical substance/The level of expressed mRNA in the absence of chemical substance,yeast gene YDR345C,0.8
same,The level of expressed mRNA in the presence of chemical substance/The level of expressed mRNA in the absence of chemical substance,yeast gene YDR387C,0.9
same,The level of expressed mRNA in the presence of chemical substance/The level of expressed mRNA in the absence of chemical substance,yeast gene YDR497C,0.6
same,The level of expressed mRNA in the presence of chemical substance/The level of expressed mRNA in the absence of chemical substance,yeast gene YEL027W,1.4
same,The level of expressed mRNA in the presence of chemical substance/The level of expressed mRNA in the absence of chemical substance,yeast gene YEL063C,0.8
same,The level of expressed mRNA in the presence of chemical substance/The level of expressed mRNA in the absence of chemical substance,yeast gene YEL065W,0.4
same,The level of expressed mRNA in the presence of chemical substance/The level of expressed mRNA in the absence of chemical substance,yeast gene YER053C,1.3
same,The level of expressed mRNA in the presence of chemical substance/The level of expressed mRNA in the absence of chemical substance,yeast gene YFL011W,0.8
same,The level of expressed mRNA in the presence of chemical substance/The level of expressed mRNA in the absence of chemical substance,yeast gene YFL041W,1.0
same,The level of expressed mRNA in the presence of chemical substance/The level of expressed mRNA in the absence of chemical substance,yeast gene YFL050C,1.0
same,The level of expressed mRNA in the presence of chemical substance/The level of expressed mRNA in the absence of chemical substance,yeast gene YFL054C,0.9
same,The level of expressed mRNA in the presence of chemical substance/The level of expressed mRNA in the absence of chemical substance,yeast gene YGL006W,0.9
same,The level of expressed mRNA in the presence of chemical substance/The level of expressed mRNA in the absence of chemical substance,yeast gene YGL008C,1.2
same,The level of expressed mRNA in the presence of chemical substance/The level of expressed mRNA in the absence of chemical substance,yeast gene YGL104C,1.0
same,The level of expressed mRNA in the presence of chemical substance/The level of expressed mRNA in the absence of chemical substance,yeast gene YGL167C,0.8
same,The level of expressed mRNA in the presence of chemical substance/The level of expressed mRNA in the absence of chemical substance,yeast gene YGL255W,1.0
same,The level of expressed mRNA in the presence of chemical substance/The level of expressed mRNA in the absence of chemical substance,yeast gene YGR055W,1.2
same,The level of expressed mRNA in the presence of chemical substance/The level of expressed mRNA in the absence of chemical substance,yeast gene YGR065C,1.3
same,The level of expressed mRNA in the presence of chemical substance/The level of expressed mRNA in the absence of chemical substance,yeast gene YGR082W,0.9
same,The level of expressed mRNA in the presence of chemical substance/The level of expressed mRNA in the absence of chemical substance,yeast gene YGR096W,1.2
same,The level of expressed mRNA in the presence of chemical substance/The level of expressed mRNA in the absence of chemical substance,yeast gene YGR138C,0.9
same,The level of expressed mRNA in the presence of chemical substance/The level of expressed mRNA in the absence of chemical substance,yeast gene YGR191W,0.7
same,The level of expressed mRNA in the presence of chemical substance/The level of expressed mRNA in the absence of chemical substance,yeast gene YGR197C,1.5
same,The level of expressed mRNA in the presence of chemical substance/The level of expressed mRNA in the absence of chemical substance,yeast gene YGR224W,0.9
same,The level of expressed mRNA in the presence of chemical substance/The level of expressed mRNA in the absence of chemical substance,yeast gene YGR260W,0.7
same,The level of expressed mRNA in the presence of chemical substance/The level of expressed mRNA in the absence of chemical substance,yeast gene YGR281W,0.9
